Measurements as given in the NIST ThermoML archive (doi:10.1021/je9007662).
Numbers after ± are expanded uncertainties.

Experiment: mean ionic activity coefficient (dimensionless); mn = molality of the nth substance listed, in mol/kg
Conditions: 298.15 K, 101 kPa, Liquid

[Br-].[Cs+] [cesium bromide] + O
Conditions | mean ionic activity coefficient
m1 = 0.1 | 0.75 ± 0.001
m1 = 0.2 | 0.689 ± 0.001
m1 = 0.3 | 0.652 ± 0.001
m1 = 0.4 | 0.625 ± 0.001
m1 = 0.5 | 0.604 ± 0.001
m1 = 0.6 | 0.587 ± 0.001
m1 = 0.7 | 0.573 ± 0.001
m1 = 0.8 | 0.561 ± 0.001
m1 = 0.9 | 0.551 ± 0.001
m1 = 1 | 0.542 ± 0.001
m1 = 1.2 | 0.526 ± 0.001
m1 = 1.4 | 0.514 ± 0.001
m1 = 1.6 | 0.504 ± 0.001
m1 = 1.8 | 0.495 ± 0.001
m1 = 2 | 0.488 ± 0.001
m1 = 2.5 | 0.475 ± 0.001
m1 = 3 | 0.466 ± 0.001
m1 = 3.5 | 0.461 ± 0.001
m1 = 4 | 0.46 ± 0.001
m1 = 4.5 | 0.46 ± 0.001
m1 = 5 | 0.463 ± 0.001
